{"source": "patent US9458162B2", "about": "“Cyclic molecules as bruton's tyrosine kinase inhibitors” (Nanjing Allgen Pharma Co. Ltd., priority 2012, dated 2016)", "molecular_target": "T1, Human BTK enzyme (Homo sapiens, UniProt Q06187)", "T1 construct": "Reaction Biology Corporation", "T1 sequence (Q06187 whole entry)": "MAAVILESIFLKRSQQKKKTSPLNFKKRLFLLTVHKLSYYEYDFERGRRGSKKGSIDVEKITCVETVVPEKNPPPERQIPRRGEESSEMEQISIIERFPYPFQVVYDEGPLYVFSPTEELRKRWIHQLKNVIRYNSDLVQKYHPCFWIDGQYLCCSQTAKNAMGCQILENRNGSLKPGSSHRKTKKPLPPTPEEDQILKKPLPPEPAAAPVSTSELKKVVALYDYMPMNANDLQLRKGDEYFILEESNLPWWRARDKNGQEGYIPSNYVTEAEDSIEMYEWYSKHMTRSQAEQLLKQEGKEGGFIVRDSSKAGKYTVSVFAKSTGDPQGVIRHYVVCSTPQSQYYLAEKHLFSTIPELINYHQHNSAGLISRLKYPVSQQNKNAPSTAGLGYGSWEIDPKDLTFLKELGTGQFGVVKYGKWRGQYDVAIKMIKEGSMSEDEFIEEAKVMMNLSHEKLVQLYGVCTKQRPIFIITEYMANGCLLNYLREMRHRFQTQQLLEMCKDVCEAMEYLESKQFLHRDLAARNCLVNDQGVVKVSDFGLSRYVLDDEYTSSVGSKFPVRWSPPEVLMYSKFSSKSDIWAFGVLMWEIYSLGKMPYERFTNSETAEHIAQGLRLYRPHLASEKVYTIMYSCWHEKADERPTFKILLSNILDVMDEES", "experiment": "BTK inhibitory activity assay at Reaction Biology Corporation, peptide substrate", "type": "biochemical", "conditions": "peptide substrate 20 μM, ATP 10 μM; for inhibition at 0.005 µM: read-out: Inhibition of ALK, IC50 (Inhibitory Activities of examples at 5 nM)"}
{"compound": "C=CC(=O)N1CC2(CC(n3nc(-c4ccc(Oc5ccccc5)cc4)c4c(N)ncnc43)C2)C1", "note": "[Example 1, 1-(6-(4-Amino-3-(4-phenoxyphenyl)-1H-pyrazolo[3,4-d]pyrimidin-1-yl)-2-azaspiro[3.3]heptan-2-yl)prop-2-en-1-one]", "values": [{"measurement": "inhibition at 0.005 µM", "setting": "compound at 5 nM", "value": 98.5, "unit": "%"}, {"measurement": "IC50", "value": 1.48, "unit": "nM"}]}
{"compound": "C=CC(=O)N1CCC2(CC1)CC(n1nc(-c3ccc(Oc4ccccc4)cc3)c3c(N)ncnc31)C2", "note": "[Example 2, 1-(2-(4-amino-3-(4-phenoxyphenyl)-1H-pyrazolo[3,4-d]pyrimidin-1-yl)-7-azaspiro[3.5]nonan-7-yl)prop-2-en-1-one]", "values": [{"measurement": "inhibition at 0.005 µM", "setting": "compound at 5 nM", "value": 80.1, "unit": "%"}]}
{"compound": "C=CC(=O)N1CC2(CCC(n3nc(-c4ccc(Oc5ccccc5)cc4)c4c(N)ncnc43)CC2)C1", "note": "[Example 3, 1-(7-(4-amino-3-(4-phenoxyphenyl)-1H-pyrazolo[3,4-d]pyrimidin-1-yl)-2-azaspiro[3.5]nonan-2-yl)prop-2-en-1-one]", "values": [{"measurement": "inhibition at 0.005 µM", "setting": "compound at 5 nM", "value": 96.4, "unit": "%"}]}
{"compound": "C=CC(=O)N1CCCC2(CC(n3nc(-c4ccc(Oc5ccccc5)cc4)c4c(N)ncnc43)C2)C1", "note": "(stereo not drawn) [Example 4A, 1-(2-(4-amino-3-(4-phenoxyphenyl)-1H-pyrazolo[3,4-d]pyrimidin-1-yl)-6-azaspiro[3.5]nonan-6-yl)prop-2-en-1-one]", "values": [{"measurement": "inhibition at 0.005 µM", "setting": "compound at 5 nM", "value": 85.7, "unit": "%"}]}
{"compound": "C=CC(=O)N1CCCC2(CC(n3nc(-c4ccc(Oc5ccccc5)cc4)c4c(N)ncnc43)C2)C1", "note": "(stereo not drawn) [Example 4B, 1-(2-(4-amino-3-(4-phenoxyphenyl)-1H-pyrazolo[3,4-d]pyrimidin-1-yl)-6-azaspiro[3.5]nonan-6-yl)prop-2-en-1-one]", "values": [{"measurement": "percent inhibition of BTK at 5 nM", "setting": "compound at 5 nM", "value": 97.9, "unit": "%"}]}
